This note sets out measurements from patent US10251889B2, “Substituted pyrazolo[1,5-a]pyrimidine compounds as Trk kinase inhibitors” (Array BioPharma, Inc., priority 2009, dated 2019).

Molecules are shown by their SMILES.

One may read the inhibition as the change of the read-out against control, counted positive when it falls.

Jak2 (human Jak2 kinase domain, amino acids 808-1132), sequence (O60674 808-1132): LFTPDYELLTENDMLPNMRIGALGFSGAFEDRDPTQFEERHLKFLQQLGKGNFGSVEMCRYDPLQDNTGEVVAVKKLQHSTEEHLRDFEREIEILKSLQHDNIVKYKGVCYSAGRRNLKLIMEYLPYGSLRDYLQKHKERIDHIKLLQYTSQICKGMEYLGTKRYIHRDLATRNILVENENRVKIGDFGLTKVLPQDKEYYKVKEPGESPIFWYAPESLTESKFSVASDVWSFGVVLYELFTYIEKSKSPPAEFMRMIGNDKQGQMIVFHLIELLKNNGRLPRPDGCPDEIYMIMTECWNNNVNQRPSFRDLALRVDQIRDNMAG

This experiment addresses Jak2 (human Jak2 kinase domain, amino acids 808-1132) (Homo sapiens (Human), UniProt O60674). Description: Jak2 inhibition assay (Omnia kinase assay). It is filed as biochemical. The note with it: read-out: Jak2 Enzyme (% inhibition at 1000 nM), Table 1; 1000 nM test compound. On the procedure:
The assays described in Examples C, D, E and F for the determination of JAK1, JAK2, JAK3 and Tyk2 kinase activity, respectively, utilized the Omnia® Kinase fluorescence peptide substrate-based technology (Invitrogen). […] The reactions were therefore read at excitation 360 nm and emission was measured at 485 nm every 50 seconds for 45 minutes using a PerkinElmer EnVision Multilabel Plate Reader.
The final buffer conditions for each of the JAK1, JAK2, JAK3 and Tyk2 assays were as follows: 25 mM HEPES, pH 7.4, 10 mM MgCl2, 0.01% Triton X-100 and 1 mM DTT.
Two-μL aliquots of these were transferred to a fresh plate for a ten-fold intermediate dilution with assay buffer. Five-μL aliquots of the diluted compounds were then transferred to 20-μL of assay mixtures described in Examples C, D, E and F for a final concentration of DMSO of 2%. […] For each plate, percent of control (POC) values were calculated for each well according to the following equation:
where Xmax=Average Uninhibited Controls • Xmin=Average Background IC50's were estimated from the POC's using a standard 4-parameter logistic model:
where A=Minimum Y (Bottom Asymptote) • B=Maximum Y (Top Asymptote) • C=EC50 • D=Slope Factor • X=Compound Concentration (nM) • Y=POC
The IC50 is defined as the concentration of inhibitor at which the POC equals 50 for the fitted curve.
Compounds of Formula I were screened for their ability to inhibit Jak2 using the general enzyme inhibition assay method, in which the assay mixture contained 500 μM ATP, 10 μM Omnia® Y7 peptide (Catalog # IVGN KNZ3071C, Invitrogen Corporation, Carlsbad, Calif.) and 4 nM Jak2 in a total volume of 20 μL. Human Jak2 kinase domain comprising amino acids 808-1132 was purchased from Invitrogen Corporation, Carlsbad, Calif. (catalog # IVGN PV4210).
As to `CC(C)(CN1CCOCC1)NC(=O)c1cnn2ccc(N3CCC[C@@H]3c3cc(F)ccc3F)nc12` [Example 9, (R)-5-(2-(2,5-difluorophenyl)pyrrolidin-1-yl)-N-(2-methyl-1-morpholinopropan-2-yl)pyrazolo[1,5-a]pyrimidine-3-carboxamide], the inhibition at 1 µM is 4.6%.

Turning to `O=C(NCC(F)CCl)c1cnn2ccc(N3CCC[C@@H]3c3cncc(F)c3)nc12` (stereo partly drawn) [Example 97, N-(3-chloro-2-fluoropropyl)-5-((R)-2-(5-fluoropyridin-3-yl)pyrrolidin-1-yl)pyrazolo[1,5-a]pyrimidine-3-carboxamide], the inhibition at 1 µM came out at 6.8%.

Take `O=C(NC1(CO)CC1)c1cnn2ccc(N3CCC[C@@H]3c3cncc(F)c3)nc12` [Example 107, (R)-5-(2-(5-fluoropyridin-3-yl)pyrrolidin-1-yl)-N-(1-(hydroxymethyl)cyclopropyl)pyrazolo [1,5-a]pyrimidine-3-carboxamide]: the inhibition at 1 µM turned out to be 7.1%.

On to `Cc1ncc(F)cc1[C@H]1CCCN1c1ccn2ncc(C(=O)N[C@H]3CC[C@H](O)C3)c2n1` [Example 196, 5-((R)-2-(5-fluoro-2-methylpyridin-3-yl)pyrrolidin-1-yl)-N-((1S,3S)-3-hydroxycyclopentyl)pyrazolo[1,5-a]pyrimidine-3-carboxamide], for which the inhibition at 1 µM is 10.6%.

As to `O=C(NCCc1c[nH]cn1)c1cnn2ccc(N3CCC[C@@H]3c3cc(F)ccc3F)nc12` [Example 25, (R)—N-(2-(1H-imidazol-4-yl)ethyl)-5-(2-(2,5-difluorophenyl)pyrrolidin-1-yl)pyrazole [1,5-a]pyrimidine-3-carboxamide], the inhibition at 1 µM was 19.4%.

With `CC1(NC(=O)c2cnn3ccc(N4[C@H](CO)CC[C@@H]4c4cncc(F)c4)nc23)CC1` [Example 214, 5-((2R,5S)-2-(5-fluoropyridin-3-yl)-5-(hydroxymethyl)pyrrolidin-1-yl)-N-(1-methylcyclopropyl)pyrazolo[1,5-a]pyrimidine-3-carboxamide], the inhibition at 1 µM was found to be 29.7%.

With `O=C(c1cnn2ccc(N3CCC[C@@H]3c3cc(F)ccc3F)nc12)N1CC[C@@H](O)C1` [Example 19, (5-((R)-2-(2,5-difluorophenyl)pyrrolidin-1-yl)pyrazolo[1,5-a]pyrimidin-3-yl)((R)-3-hydroxypyrrolidin-1-yl)methanone], the inhibition at 1 µM was 3.4%.

For the compound `CC(C)(O)CNC(=O)c1cnn2ccc(N3CCC[C@@H]3c3cc(F)ccc3F)nc12` [Example 17, (R)-5-(2-(2,5-difluorophenyl)pyrrolidin-1-yl)-N-(2-hydroxy-2-methylpropyl)pyrazolo[1,5-a]pyrimidine-3-carboxamide], the inhibition at 1 µM was found to be 5.6%.

Regarding `O=C(NC1(C(=O)O)CC1)c1cnn2ccc(N3CCC[C@@H]3c3cc(F)ccc3F)nc12` [Example 84, (R)-1-(5-(2-(2,5-difluorophenyl)pyrrolidin-1-yl)pyrazolo[1,5-a]pyrimidine-3-carboxamido)cyclopropanecarboxylic Acid], the inhibition at 1 µM came out at 2.7%.

As for `Cc1ncc(F)cc1[C@H]1CCCN1c1ccn2ncc(C(=O)NC(C)(C)C)c2n1` [Example 183, (R)-N-tert-butyl-5-(2-(5-fluoro-2-methylpyridin-3-yl)pyrrolidin-1-yl)pyrazolo[1,5-a]pyrimidine-3-carboxamide], the inhibition at 1 µM was -0.8%.

With `CC1(O)CCC(NC(=O)c2cnn3ccc(N4CCC[C@@H]4c4cc(F)ccc4F)nc23)CC1` (single isomer, unassigned; diastereomer 1) [Example 50], the inhibition at 1 µM came to 73.7%.

With `Cn1cnc(CNC(=O)c2cnn3ccc(N4CCC[C@@H]4c4cc(F)ccc4F)nc23)c1` [Example 21, (R)-5-(2-(2,5-difluorophenyl)pyrrolidin-1-yl)-N-((1-methyl-1H-imidazol-4-yl)methyl) pyrazole[1,5-a]pyrimidine-3-carboxamide], the inhibition at 1 µM came to 5.8%.

With `Cn1cc(F)cc([C@H]2CCCN2c2ccn3ncc(C(=O)N[C@H]4CC[C@H](O)CC4)c3n2)c1=O` [Example 238, 5-((R)-2-(5-fluoro-1-methyl-2-oxo-1,2-dihydropyridin-3-yl)pyrrolidin-1-yl)-N-((trans)-4-hydroxycyclohexyl)pyrazolo[1,5-a]pyrimidine-3-carboxamide], the inhibition at 1 µM is 58.9%.

As to `COc1ncc(F)cc1[C@H]1CCCN1c1ccn2ncc(C(=O)NCC(C)(C)O)c2n1` [Example 158, (R)-5-(2-(5-fluoro-2-methoxypyridin-3-yl)pyrrolidin-1-yl)-N-(2-hydroxy-2-methylpropyl)pyrazolo[1,5-a]pyrimidine-3-carboxamide], the inhibition at 1 µM stood at 14.4%.

Take `O=C(c1cnn2ccc(N3CCC[C@@H]3c3cncc(F)c3)nc12)N1CC[C@H](O)C1` [Example 128, (5-((R)-2-(5-fluoropyridin-3-yl)pyrrolidin-1-yl)pyrazolo[1,5-a]pyrimidin-3-yl)((S)-3-hydroxypyrrolidin-1-yl)methanone]: the inhibition at 1 µM is 1.2%.

Regarding `O=C(O)C1CCN(C(=O)c2cnn3ccc(N4CCC[C@@H]4c4cc(F)ccc4F)nc23)CC1` [Example 11, (R)-1-(5-(2-(2,5-difluorophenyl)pyrrolidin-1-yl)pyrazolo[1,5-a]pyrimidine-3-carbonyl)piperidine-4-carboxylic Acid], the inhibition at 1 µM came out at 10.1%.

As to `COc1ncc(F)cc1[C@H]1CCCN1c1ccn2ncc(C(=O)Nc3ccc(=O)[nH]c3)c2n1` [Example 161, (R)-5-(2-(5-fluoro-2-methoxypyridin-3-yl)pyrrolidin-1-yl)-N-(6-oxo-1,6-dihydropyridin-3-yl)pyrazolo[1,5-a]pyrimidine-3-carboxamide], the inhibition at 1 µM stood at 27.4%.

With `O=C(NC[C@H](O)CO)c1cnn2ccc(N3CCC[C@@H]3c3cc(F)ccc3F)nc12` [Example 29, 5-((R)-2-(2,5-difluorophenyl)pyrrolidin-1-yl)-N—((S)-2,3-dihydroxypropyl)pyrazolo[1,5-a]pyrimidine-3-carboxamide], the inhibition at 1 µM worked out at 13.2%.

For `CN(C)C(=O)c1cnn2ccc(N3CCC[C@@H]3c3cc(F)ccc3F)nc12` [Example 27, (R)-5-(2-(2,5-difluorophenyl)pyrrolidin-1-yl)-N,N-dimethylpyrazolo[1,5-a]pyrimidine-3-carboxamide], the inhibition at 1 µM came out at 1.3%.

For `O=C(Nc1ccccn1)c1cnn2ccc(N3CCC[C@@H]3c3cc(F)ccc3F)nc12` [Example 2, (R)-5-(2-(2,5-difluorophenyl)pyrrolidin-1-yl)-N-(pyridin-2-yl)pyrazolo[1,5-a]pyrimidine-3-carboxamide], the inhibition at 1 µM was 19.1%.

For the compound `NCCCNC(=O)c1cnn2ccc(N3CCC[C@@H]3c3cc(F)c[nH]c3=O)nc12` [Example 142, (R)—N-(3-aminopropyl)-5-(2-(5-fluoro-2-oxo-1,2-dihydropyridin-3-yl)pyrrolidin-1-yl)pyrazolo[1,5-a]pyrimidine-3-carboxamide], the inhibition at 1 µM was -0.9%.

For `O=C(NC1CC1)c1cnn2ccc(N3CCC[C@@H]3c3cc(F)cc(OCC(O)CO)c3)nc12` (stereo partly drawn) [Example 208, N-cyclopropyl-5-((2R)-2-(3-(2,3-dihydroxypropoxy)-5-fluorophenyl)pyrrolidin-1-yl)pyrazolo[1,5-a]pyrimidine-3-carboxamide], the inhibition at 1 µM was determined as 21.2%.

Turning to `O=C(N[C@H]1CC[C@H](C(=O)O)CC1)c1cnn2ccc(N3CCC[C@@H]3c3cc(F)ccc3F)nc12` [Example 33, Trans-4-(5-((R)-2-(2,5-difluorophenyl)pyrrolidin-1-yl)pyrazolo[1,5-a]pyrimidine-3-carboxamido)cyclohexanecarboxylic Acid], the inhibition at 1 µM came to 99.9%.

For the compound `O=C(N[C@H]1CC[C@H](O)C1)c1cnn2ccc(N3CCC[C@@H]3c3cc(F)ccc3F)nc12` [Example 169, 5-((R)-2-(2,5-difluorophenyl)pyrrolidin-1-yl)-N-((1S,3S)-3-hydroxycyclopentyl)pyrazolo[1,5-a]pyrimidine-3-carboxamide], the inhibition at 1 µM turned out to be 51.9%.

Take `CC(C)(CF)NC(=O)c1cnn2ccc(N3CCC[C@@H]3c3cc(F)ccc3F)nc12` [Example 40, (R)-5-(2-(2,5-difluorophenyl)pyrrolidin-1-yl)-N-(1-fluoro-2-methylpropan-2-yl)pyrazolo[1,5-a]pyrimidine-3-carboxamide]: the inhibition at 1 µM stood at 41.4%.

`O=C(NC[C@@H](O)CO)c1cnn2ccc(N3CCC[C@@H]3c3cc(F)ccc3F)nc12` [Example 26, 5-((R)-2-(2,5-difluorophenyl)pyrrolidin-1-yl)-N—((R)-2,3-dihydroxypropyl)pyrazolo[1,5-a]pyrimidine-3-carboxamide]: the inhibition at 1 µM amounted to 9.9%.

For the compound `COCCOc1cc(F)cc([C@H]2CCCN2c2ccn3ncc(C(=O)NC4CC4)c3n2)c1` [Example 77, (R)—N-cyclopropyl-5-(2-(3-fluoro-5-(2-methoxyethoxy)phenyl)pyrrolidin-1-yl)pyrazole [1,5-a]pyrimidine-3-carboxamide], the inhibition at 1 µM was determined as 15.3%.
